Experimental data: PubChem BioAssay (NCI)
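48-hour exposure; five concentrations; linearly interpolated endpoints. The concentration for full growth arrest is given as TGI.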

Assays:
Assay in all cases: NCI anticancer screen, dose series, 48 h
786-0 renal = test system: 786-0 renal
A498 renal = test system: A498 renal
A549 NSCLC = test system: A549 NSCLC
ACHN renal = test system: ACHN renal
CAKI-1 renal = test system: CAKI-1 renal
CCRF-CEM leukemia = test system: CCRF-CEM leukemia
COLO 205 colon = test system: COLO 205 colon
DU-145 prostate = test system: DU-145 prostate
EKVX NSCLC = test system: EKVX NSCLC
HCC-2998 colon = test system: HCC-2998 colon
HCT-116 colon = test system: HCT-116 colon
HCT-15 colon = test system: HCT-15 colon
HL-60(TB) leukemia = test system: HL-60(TB) leukemia
HOP-62 NSCLC = test system: HOP-62 NSCLC
HS 578T breast = test system: HS 578T breast
HT29 colon = test system: HT29 colon
IGROV1 ovarian = test system: IGROV1 ovarian
K-562 leukemia = test system: K-562 leukemia
KM12 colon = test system: KM12 colon
LOX IMVI melanoma = test system: LOX IMVI melanoma
M14 melanoma = test system: M14 melanoma
MALME-3M melanoma = test system: MALME-3M melanoma
MCF7 breast = test system: MCF7 breast
MDA-MB-231 breast = test system: MDA-MB-231 breast
MDA-MB-435 = test system: MDA-MB-435
MDA-N = test system: MDA-N
MOLT-4 leukemia = test system: MOLT-4 leukemia
NCI-H226 lung = test system: NCI-H226 lung
NCI-H23 lung = test system: NCI-H23 lung
NCI-H460 lung = test system: NCI-H460 lung
NCI-H522 lung = test system: NCI-H522 lung
NCI/ADR-RES ovarian = test system: NCI/ADR-RES ovarian
OVCAR-3 ovarian = test system: OVCAR-3 ovarian
OVCAR-4 ovarian = test system: OVCAR-4 ovarian
OVCAR-5 ovarian = test system: OVCAR-5 ovarian
OVCAR-8 ovarian = test system: OVCAR-8 ovarian
PC-3 prostate = test system: PC-3 prostate
RPMI-8226 leukemia = test system: RPMI-8226 leukemia
SF-268 CNS = test system: SF-268 CNS
SF-295 CNS = test system: SF-295 CNS
SF-539 CNS = test system: SF-539 CNS
SK-MEL-2 melanoma = test system: SK-MEL-2 melanoma
SK-MEL-28 melanoma = test system: SK-MEL-28 melanoma
SK-MEL-5 melanoma = test system: SK-MEL-5 melanoma
SK-OV-3 ovarian = test system: SK-OV-3 ovarian
SN12C renal = test system: SN12C renal
SNB-19 CNS = test system: SNB-19 CNS
SNB-75 CNS = test system: SNB-75 CNS
SR leukemia = test system: SR leukemia
SW-620 colon = test system: SW-620 colon
T-47D breast = test system: T-47D breast
TK-10 renal = test system: TK-10 renal
U251 CNS = test system: U251 CNS
UACC-257 melanoma = test system: UACC-257 melanoma
UACC-62 melanoma = test system: UACC-62 melanoma
UO-31 renal = test system: UO-31 renal
BT-549 breast = test system: BT-549 breast
HOP-92 NSCLC = test system: HOP-92 NSCLC
RXF 393 renal = test system: RXF 393 renal

SMILES: O=C1OC(C2Cc3cc4c(cc3C2=O)CCC4)c2ccccc21 (stereo not drawn)
- TGI (786-0 renal): > 100 µM
- TGI (A498 renal): 61.6 µM
- TGI (A549 NSCLC): > 100 µM
- TGI (ACHN renal): > 100 µM
- TGI (CAKI-1 renal): > 100 µM
- TGI (CCRF-CEM leukemia): > 100 µM
- TGI (COLO 205 colon): > 100 µM
- TGI (DU-145 prostate): > 100 µM
- TGI (EKVX NSCLC): > 100 µM
- TGI (HCC-2998 colon): 98.7 µM
- TGI (HCT-116 colon): > 100 µM
- TGI (HCT-15 colon): > 100 µM
- TGI (HL-60(TB) leukemia): > 100 µM
- TGI (HOP-62 NSCLC): > 100 µM
- TGI (HS 578T breast): > 100 µM
- TGI (HT29 colon): > 100 µM
- TGI (IGROV1 ovarian): > 100 µM
- TGI (K-562 leukemia): > 100 µM
- TGI (KM12 colon): > 100 µM
- TGI (LOX IMVI melanoma): > 100 µM
- TGI (M14 melanoma): > 100 µM
- TGI (MALME-3M melanoma): > 100 µM
- TGI (MCF7 breast): > 100 µM
- TGI (MDA-MB-231 breast): > 100 µM
- TGI (MDA-MB-435): > 100 µM
- TGI (MDA-N): > 100 µM
- TGI (MOLT-4 leukemia): 64.4 µM
- TGI (NCI-H226 lung): 58.6 µM
- TGI (NCI-H23 lung): > 100 µM
- TGI (NCI-H460 lung): > 100 µM
- TGI (NCI-H522 lung): > 100 µM
- TGI (NCI/ADR-RES ovarian): > 100 µM
- TGI (OVCAR-3 ovarian): > 100 µM
- TGI (OVCAR-4 ovarian): > 100 µM
- TGI (OVCAR-5 ovarian): > 100 µM
- TGI (OVCAR-8 ovarian): > 100 µM
- TGI (PC-3 prostate): > 100 µM
- TGI (RPMI-8226 leukemia): > 100 µM
- TGI (SF-268 CNS): > 100 µM
- TGI (SF-295 CNS): > 100 µM
- TGI (SF-539 CNS): 80.4 µM
- TGI (SK-MEL-2 melanoma): > 100 µM
- TGI (SK-MEL-28 melanoma): > 100 µM
- TGI (SK-MEL-5 melanoma): > 100 µM
- TGI (SK-OV-3 ovarian): > 100 µM
- TGI (SN12C renal): > 100 µM
- TGI (SNB-19 CNS): > 100 µM
- TGI (SNB-75 CNS): > 100 µM
- TGI (SR leukemia): > 100 µM
- TGI (SW-620 colon): > 100 µM
- TGI (T-47D breast): > 100 µM
- TGI (TK-10 renal): > 100 µM
- TGI (U251 CNS): > 100 µM
- TGI (UACC-257 melanoma): > 100 µM
- TGI (UACC-62 melanoma): > 100 µM
- TGI (UO-31 renal): > 100 µM

SMILES: O=C(O)c1ccc([N+](=O)[O-])c(P(=O)(O)O)c1
- TGI (786-0 renal): > 100 µM
- TGI (A498 renal): > 100 µM
- TGI (A549 NSCLC): > 100 µM
- TGI (ACHN renal): > 100 µM
- TGI (BT-549 breast): > 100 µM
- TGI (CAKI-1 renal): > 100 µM
- TGI (COLO 205 colon): > 100 µM
- TGI (DU-145 prostate): > 100 µM
- TGI (EKVX NSCLC): > 100 µM
- TGI (HCT-116 colon): > 100 µM
- TGI (HCT-15 colon): > 100 µM
- TGI (HL-60(TB) leukemia): > 100 µM
- TGI (HOP-62 NSCLC): > 100 µM
- TGI (HOP-92 NSCLC): > 100 µM
- TGI (HT29 colon): > 100 µM
- TGI (IGROV1 ovarian): > 100 µM
- TGI (K-562 leukemia): > 100 µM
- TGI (KM12 colon): > 100 µM
- TGI (LOX IMVI melanoma): > 100 µM
- TGI (M14 melanoma): > 100 µM
- TGI (MCF7 breast): > 100 µM
- TGI (MDA-MB-231 breast): > 100 µM
- TGI (MDA-MB-435): > 100 µM
- TGI (MDA-N): > 100 µM
- TGI (MOLT-4 leukemia): > 100 µM
- TGI (NCI-H226 lung): > 100 µM
- TGI (NCI-H23 lung): > 100 µM
- TGI (NCI-H460 lung): > 100 µM
- TGI (NCI/ADR-RES ovarian): > 100 µM
- TGI (OVCAR-3 ovarian): > 100 µM
- TGI (OVCAR-4 ovarian): > 100 µM
- TGI (OVCAR-5 ovarian): > 100 µM
- TGI (OVCAR-8 ovarian): > 100 µM
- TGI (PC-3 prostate): > 100 µM
- TGI (RPMI-8226 leukemia): > 100 µM
- TGI (RXF 393 renal): > 100 µM
- TGI (SF-295 CNS): > 100 µM
- TGI (SF-539 CNS): > 100 µM
- TGI (SK-MEL-2 melanoma): > 100 µM
- TGI (SK-MEL-28 melanoma): > 100 µM
- TGI (SK-MEL-5 melanoma): > 100 µM
- TGI (SK-OV-3 ovarian): > 100 µM
- TGI (SN12C renal): > 100 µM
- TGI (SNB-19 CNS): > 100 µM
- TGI (SR leukemia): > 100 µM
- TGI (SW-620 colon): > 100 µM
- TGI (T-47D breast): > 100 µM
- TGI (TK-10 renal): > 100 µM
- TGI (U251 CNS): > 100 µM
- TGI (UACC-257 melanoma): > 100 µM
- TGI (UACC-62 melanoma): > 100 µM
- TGI (UO-31 renal): > 100 µM
